No end group written: not given here.
Experiments:
[1] = test system: murine B16 melanoma cells; experiment: Subcutaneous murine B16 melanoma tumor model in C57BL/6 mice (tumor volume, tumor weight); assay type: in vivo; details: for percent inhibition of tumor weight (PITW): Day 16 necropsy, DTIC 5 mg/kg s.c. daily, TA-1 6 mg/kg s.c. daily, 9H10 i.p. Day 3 (100 μg), Day 6 (50 μg), Day 9 (50 μg), vs vehicle
Protocol: (§1) C57BL/6 mice were implanted subcutaneously with murine B16 melanoma cells (Cell Culture Center, Institute of Basic Medical Sciences, Peking Union Medical College and Chinese Academy of Medical Sciences PUMC&CAMS, Beijing, P.R.China), followed by treatment with TA-1 or DTIC alone or in combination for 14 consecutive days. The day of tumor implantation was defined as Day 0. Meanwhile 9H10 was given in two groups via i.p. on Day 3, 6 and 9. TA-1 and DTIC were administered daily by s.c. injection. In total, 5 groups of mice (n=10) were used: Group 1: vehicle; Group 2: DTIC 5 mg/kg; Group 3: TA-1 6 mg/kg; Group 4: DTIC 5 mg/kg+9H10 (Day 3 (100 μg), Day 6 (50 μg), Day 9 (50 μg)); Group 5: DTIC 5 mg/kg+TA-1 6 mg/kg+9H10 (Day 3 (100 μg), Day 6 (50 μg), Day 9 (50 μg)) (Table 1). The animals were six weeks old and weighed between 18 and 22 grams at the start of the study. Tumor volume and body weight were measured every three days, and tumor weights were measured on Day 16 at the end of the study.
Phosphate buffered saline (PBS) was used as the negative control article (vehicle). TA-1 solution was stored at 2-8° C. and used up in one week. DTIC(SIGMA) was initially dissolved in 0.01 N HCl and then diluted with PBS to 1 mg/mL. DTIC dosing solution was kept on ice, protected from light, and used within one day. Final dosing solutions were prepared on the day of use by diluting the stock solution to 1× with water. The antibody reagent 9H10 (EBIOSCIENCE) was a ready-to-use agent at a concentration of 1 mg/mL.
Mortality and moribundity were checked twice daily, the body weights were recorded once every 3 days, and tumors were measured using a caliper once every 3 days. […]
Based on the tumor size, the tumor volume (TV) was calculated with the formula: [TV=(Length×Width×Width)/2]. And the percent inhibition (PI) of TV (PITV) was calculated according to the equation below: […]
The anti-tumor effect of the test article was further evaluated with tumor weight (TW) measured on day of necropsy (Day 16). The PI of TW was calculated using the equation below: […]

[2] = Body weight of B16 tumor-bearing C57BL/6 mice during treatment; assay type: in vivo; details: TA-1 6 mg/kg s.c. daily, alone or in combination, throughout the course of the study
Protocol: as §1
Mortality and moribundity were checked twice daily, the body weights were recorded once every 3 days, and tumors were measured using a caliper once every 3 days. At the end of the study (Day 16), the animals were euthanized by CO2 asphyxiation, and the tumors were excised and weighed.

| Compound | percent inhibition of tumor weight (PITW) [1] [%] | loss of body weight [2] | mice with palpable tumors ([1]; Day 9, n=10 per group) |
| --- | --- | --- | --- |
| CN(C)/N=N/c1[nH]cnc1C(N)=O [DTIC, dacarbazine, reference compound] | 28.41 |  |  |
| thymosin alpha 1 (Ac-SDAAVDTSSEITTKDLKEKKEVVEEAEN; ends and bridges not checked; UniProt P06454 2-29, looked up) [TA-1, 28 amino acid peptide with a molecular weight of 3108, initially isolated from Thymosin Fraction 5] | 43.35 | did not cause any loss of body weight | most mice |

Reference: US20100330093A1, “TREATMENT OF MELANOMA WITH ALPHA THYMOSIN PEPTIDES IN COMBINATION WITH ANTIBODIES AGAINST CYTOTOXIC T LYMPHOCYTE-ASSOCIATED ANTIGEN 4 (CTLA4)” (SciClone Pharmaceuticals, Inc., priority 2007, published 2010)
